Literature values, collected in publication PMC3449305 (Bioorganic & medicinal chemistry, 2011).

How the values were obtained:
CNS = conditions: rodents
[1] = rats

blood-brain barrier penetration [1] | SMILES | CNS effect in BOLD imaging (CNS)
 | C[C@@H](NC(=O)[C@@H](CC(=O)N1CCC(N2CCCCC2)CC1)N1C(=O)[C@@H](N2C(=O)OC[C@@H]2c2ccccc2)[C@H]1/C=C/c1cccc(I)c1)c1ccccc1 [Compound 11a, (R)-4-([1,4′-Bipiperidin]-1′-yl)-2-((2R,3S)-2-((E)-3-iodostyryl)-4-oxo-3-((S)-2-oxo-4-phenyloxazolidin-3-yl)azetidin-1-yl)-4-oxo-N-((R)-1-phenylethyl)butanamide] | CNS modulatory effect
crosses the blood–brain barrier | CC(NC(=O)C(CC(=O)N1CCC(N2CCCCC2)CC1)N1C(=O)C(N2C(=O)OCC2c2ccccc2)C1C=Cc1ccccc1)c1ccccc1 (centres unmarked) [SRX246] | 
